One may read the IC50 as the concentration that gives 50% inhibition. The term Kd denotes the free concentration of one partner at which half of the binding sites on the other are occupied at equilibrium, for simple one-to-one binding.

Test [1] has as its target Sphingosine kinase 1 (Homo sapiens, UniProt Q9NYA1). Description: Inhibition of SPHK1 (unknown origin).
In test [2] the target is Histone deacetylase 1 (Homo sapiens, UniProt Q13547). Description: Inhibition of HDAC1 (unknown origin).
The target of test [3] is Histone deacetylase 3 (Homo sapiens, UniProt O15379). Description: Inhibition of HDAC3 (unknown origin).
Histone deacetylase 3, sequence (O15379 whole entry): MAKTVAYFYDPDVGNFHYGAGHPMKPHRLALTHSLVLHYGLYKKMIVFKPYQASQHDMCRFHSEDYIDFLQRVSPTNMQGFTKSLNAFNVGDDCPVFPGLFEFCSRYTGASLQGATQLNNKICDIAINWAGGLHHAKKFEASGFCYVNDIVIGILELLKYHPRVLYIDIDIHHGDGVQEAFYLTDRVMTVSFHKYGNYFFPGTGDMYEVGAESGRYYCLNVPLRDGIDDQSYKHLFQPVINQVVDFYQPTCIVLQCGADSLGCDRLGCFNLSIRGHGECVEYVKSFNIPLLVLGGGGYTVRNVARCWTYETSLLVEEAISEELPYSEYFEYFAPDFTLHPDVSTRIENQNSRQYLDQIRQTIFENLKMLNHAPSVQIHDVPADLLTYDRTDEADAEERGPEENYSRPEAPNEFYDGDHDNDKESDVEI
The target of test [4] is Histone deacetylase 2 (Homo sapiens, UniProt Q92769). Description: Inhibition of HDAC2 (unknown origin).
Histone deacetylase 2, sequence (Q92769 whole entry): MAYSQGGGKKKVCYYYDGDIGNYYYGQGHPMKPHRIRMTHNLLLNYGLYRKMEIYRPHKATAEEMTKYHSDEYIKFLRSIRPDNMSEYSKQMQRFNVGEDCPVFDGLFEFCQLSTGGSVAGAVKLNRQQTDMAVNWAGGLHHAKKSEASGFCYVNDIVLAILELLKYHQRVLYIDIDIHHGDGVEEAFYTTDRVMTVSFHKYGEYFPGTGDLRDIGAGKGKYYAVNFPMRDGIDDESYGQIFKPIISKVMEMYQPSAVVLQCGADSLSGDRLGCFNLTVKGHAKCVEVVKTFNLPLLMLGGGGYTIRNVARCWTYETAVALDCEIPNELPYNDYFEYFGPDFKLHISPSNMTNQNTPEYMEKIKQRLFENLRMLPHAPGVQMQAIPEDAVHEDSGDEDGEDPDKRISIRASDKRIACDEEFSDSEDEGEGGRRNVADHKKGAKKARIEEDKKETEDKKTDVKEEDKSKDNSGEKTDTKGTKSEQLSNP
In test [5] the target is Histone deacetylase 5 (Homo sapiens, UniProt Q9UQL6). The experiment in a line: Inhibition of HDAC5 (unknown origin).
Histone deacetylase 5, sequence (Q9UQL6 whole entry): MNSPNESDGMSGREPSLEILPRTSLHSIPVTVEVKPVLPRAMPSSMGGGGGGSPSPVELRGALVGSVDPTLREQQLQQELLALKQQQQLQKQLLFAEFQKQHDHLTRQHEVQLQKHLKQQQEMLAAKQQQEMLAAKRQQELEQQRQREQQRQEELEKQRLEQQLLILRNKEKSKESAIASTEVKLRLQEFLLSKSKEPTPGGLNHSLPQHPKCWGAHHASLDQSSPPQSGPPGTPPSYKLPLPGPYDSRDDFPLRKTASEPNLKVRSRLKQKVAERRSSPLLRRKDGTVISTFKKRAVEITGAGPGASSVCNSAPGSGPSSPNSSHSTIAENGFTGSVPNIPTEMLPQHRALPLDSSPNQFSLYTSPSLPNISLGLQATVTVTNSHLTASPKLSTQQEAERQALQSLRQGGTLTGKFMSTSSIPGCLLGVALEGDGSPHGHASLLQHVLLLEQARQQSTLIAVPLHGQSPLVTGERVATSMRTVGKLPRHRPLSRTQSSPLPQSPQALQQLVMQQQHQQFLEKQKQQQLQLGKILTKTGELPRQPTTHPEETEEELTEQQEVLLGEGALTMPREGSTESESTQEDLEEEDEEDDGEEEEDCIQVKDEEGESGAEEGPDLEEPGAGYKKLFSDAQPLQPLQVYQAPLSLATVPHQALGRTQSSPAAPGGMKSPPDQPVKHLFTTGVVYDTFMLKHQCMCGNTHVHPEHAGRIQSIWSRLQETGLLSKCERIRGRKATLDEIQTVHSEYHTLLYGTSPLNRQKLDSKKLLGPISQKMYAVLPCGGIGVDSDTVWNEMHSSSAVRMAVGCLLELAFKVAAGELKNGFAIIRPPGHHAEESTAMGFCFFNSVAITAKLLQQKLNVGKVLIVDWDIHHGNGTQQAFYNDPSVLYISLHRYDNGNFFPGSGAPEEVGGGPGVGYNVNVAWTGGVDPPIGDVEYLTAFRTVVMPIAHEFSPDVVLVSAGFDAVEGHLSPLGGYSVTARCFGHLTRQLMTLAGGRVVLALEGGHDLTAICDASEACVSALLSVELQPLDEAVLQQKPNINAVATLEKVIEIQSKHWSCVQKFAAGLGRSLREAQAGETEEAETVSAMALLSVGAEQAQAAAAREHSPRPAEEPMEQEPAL
The target in test [6] is T1, Protein deacetylase HDAC6 (Homo sapiens, UniProt Q9UBN7).
T1 sequence (Q9UBN7 whole entry): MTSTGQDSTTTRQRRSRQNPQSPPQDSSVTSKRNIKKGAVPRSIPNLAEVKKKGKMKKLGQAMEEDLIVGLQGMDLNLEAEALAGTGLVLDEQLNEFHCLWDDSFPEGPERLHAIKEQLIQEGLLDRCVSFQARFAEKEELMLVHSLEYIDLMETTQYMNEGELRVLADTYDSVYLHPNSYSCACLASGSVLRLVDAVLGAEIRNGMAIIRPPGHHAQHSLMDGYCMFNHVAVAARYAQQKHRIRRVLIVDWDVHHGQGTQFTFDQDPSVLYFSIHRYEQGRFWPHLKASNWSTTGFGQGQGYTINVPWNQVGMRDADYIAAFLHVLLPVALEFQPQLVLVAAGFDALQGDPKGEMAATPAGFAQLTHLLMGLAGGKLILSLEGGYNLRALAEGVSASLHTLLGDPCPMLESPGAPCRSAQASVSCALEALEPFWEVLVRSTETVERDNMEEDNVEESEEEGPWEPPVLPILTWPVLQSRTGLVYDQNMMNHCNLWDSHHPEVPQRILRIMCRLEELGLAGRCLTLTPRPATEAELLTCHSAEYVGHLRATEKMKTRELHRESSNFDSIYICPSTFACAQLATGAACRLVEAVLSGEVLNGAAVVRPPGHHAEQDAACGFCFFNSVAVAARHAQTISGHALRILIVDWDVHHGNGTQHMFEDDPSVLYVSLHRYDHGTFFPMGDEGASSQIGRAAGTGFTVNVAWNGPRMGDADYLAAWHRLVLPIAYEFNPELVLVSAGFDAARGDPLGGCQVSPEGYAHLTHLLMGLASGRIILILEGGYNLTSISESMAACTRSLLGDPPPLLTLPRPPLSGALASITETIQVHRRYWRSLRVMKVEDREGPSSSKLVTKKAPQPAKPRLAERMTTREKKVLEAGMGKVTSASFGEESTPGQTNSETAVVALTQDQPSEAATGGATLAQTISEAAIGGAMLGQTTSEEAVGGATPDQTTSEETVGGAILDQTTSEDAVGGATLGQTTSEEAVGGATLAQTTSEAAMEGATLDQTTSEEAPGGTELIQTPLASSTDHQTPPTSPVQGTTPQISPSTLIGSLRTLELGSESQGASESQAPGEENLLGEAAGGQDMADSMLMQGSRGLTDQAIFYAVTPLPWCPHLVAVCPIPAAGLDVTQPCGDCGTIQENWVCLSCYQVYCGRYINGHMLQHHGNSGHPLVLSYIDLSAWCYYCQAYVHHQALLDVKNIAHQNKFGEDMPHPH
Description: Inhibition of HDAC6 (unknown origin).

Test [7] deals with T2, Histone deacetylase 7 (Homo sapiens, UniProt Q8WUI4).
T2 sequence (Q8WUI4 whole entry): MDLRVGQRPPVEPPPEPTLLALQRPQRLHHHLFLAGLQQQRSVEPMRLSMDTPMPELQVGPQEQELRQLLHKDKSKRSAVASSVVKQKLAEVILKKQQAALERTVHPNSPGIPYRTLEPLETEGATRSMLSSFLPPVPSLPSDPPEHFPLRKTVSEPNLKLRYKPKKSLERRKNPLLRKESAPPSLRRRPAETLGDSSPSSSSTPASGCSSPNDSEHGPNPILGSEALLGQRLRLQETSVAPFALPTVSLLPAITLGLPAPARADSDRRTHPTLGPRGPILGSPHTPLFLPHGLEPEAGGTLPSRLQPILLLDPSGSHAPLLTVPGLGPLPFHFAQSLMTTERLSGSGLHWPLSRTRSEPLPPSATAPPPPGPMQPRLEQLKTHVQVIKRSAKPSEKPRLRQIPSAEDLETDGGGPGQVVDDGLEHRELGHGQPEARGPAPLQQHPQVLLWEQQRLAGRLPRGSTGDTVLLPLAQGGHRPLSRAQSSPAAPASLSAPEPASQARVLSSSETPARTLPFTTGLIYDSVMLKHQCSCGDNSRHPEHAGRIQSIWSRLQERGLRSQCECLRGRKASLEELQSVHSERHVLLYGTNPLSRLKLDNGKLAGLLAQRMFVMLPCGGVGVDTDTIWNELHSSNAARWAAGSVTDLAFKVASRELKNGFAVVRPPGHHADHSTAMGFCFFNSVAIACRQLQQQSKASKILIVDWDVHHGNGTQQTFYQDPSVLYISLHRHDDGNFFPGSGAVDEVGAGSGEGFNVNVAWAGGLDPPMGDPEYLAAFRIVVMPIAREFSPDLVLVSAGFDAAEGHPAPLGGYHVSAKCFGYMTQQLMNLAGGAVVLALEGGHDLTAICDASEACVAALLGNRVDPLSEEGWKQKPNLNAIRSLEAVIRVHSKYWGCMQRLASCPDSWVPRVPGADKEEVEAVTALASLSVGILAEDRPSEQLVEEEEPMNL
Description: Inhibition of HDAC7 (unknown origin).

Test [8] has as its target T3, Histone deacetylase 8 (Homo sapiens, UniProt Q9BY41).
T3 sequence (Q9BY41 whole entry): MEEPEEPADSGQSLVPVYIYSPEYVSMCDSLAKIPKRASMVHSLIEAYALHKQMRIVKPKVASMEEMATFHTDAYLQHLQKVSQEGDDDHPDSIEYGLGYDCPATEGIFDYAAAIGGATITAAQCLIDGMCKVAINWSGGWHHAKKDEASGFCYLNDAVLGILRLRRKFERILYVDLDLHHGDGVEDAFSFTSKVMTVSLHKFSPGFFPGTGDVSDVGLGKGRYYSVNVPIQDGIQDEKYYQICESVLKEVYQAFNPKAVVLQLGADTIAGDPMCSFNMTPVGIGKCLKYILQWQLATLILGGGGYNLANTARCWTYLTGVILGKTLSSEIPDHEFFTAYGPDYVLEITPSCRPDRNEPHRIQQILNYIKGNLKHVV
The experiment in a line: Inhibition of HDAC8 (unknown origin).

Test [9] concerns the target Histone deacetylase 9 (Homo sapiens, UniProt Q9UKV0). Description: Inhibition of HDAC9 (unknown origin).
Test [10] concerns the target T4, Polyamine deacetylase HDAC10 (Homo sapiens, UniProt Q969S8).
T4 sequence (Q969S8 whole entry): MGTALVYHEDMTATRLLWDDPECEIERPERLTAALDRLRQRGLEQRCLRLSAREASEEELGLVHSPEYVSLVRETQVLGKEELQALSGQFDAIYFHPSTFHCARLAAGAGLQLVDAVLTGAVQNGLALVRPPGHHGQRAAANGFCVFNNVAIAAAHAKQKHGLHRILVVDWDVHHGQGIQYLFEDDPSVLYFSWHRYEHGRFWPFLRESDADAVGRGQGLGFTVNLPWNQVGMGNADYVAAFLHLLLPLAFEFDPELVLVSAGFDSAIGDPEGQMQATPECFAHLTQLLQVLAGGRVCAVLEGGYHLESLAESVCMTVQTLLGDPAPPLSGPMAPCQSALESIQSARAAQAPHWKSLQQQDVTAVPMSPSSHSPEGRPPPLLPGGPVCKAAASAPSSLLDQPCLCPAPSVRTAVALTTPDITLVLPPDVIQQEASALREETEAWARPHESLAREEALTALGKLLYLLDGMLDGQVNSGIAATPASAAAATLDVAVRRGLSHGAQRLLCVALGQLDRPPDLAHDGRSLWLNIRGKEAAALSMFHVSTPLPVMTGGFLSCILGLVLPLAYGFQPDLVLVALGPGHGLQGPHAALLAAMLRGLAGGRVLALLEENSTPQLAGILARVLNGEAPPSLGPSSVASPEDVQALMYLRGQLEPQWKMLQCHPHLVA
The experiment in a line: Inhibition of HDAC10 (unknown origin).

In test [11] the target is T5, Histone deacetylase 11 (Homo sapiens, UniProt Q96DB2).
T5 sequence (Q96DB2 whole entry): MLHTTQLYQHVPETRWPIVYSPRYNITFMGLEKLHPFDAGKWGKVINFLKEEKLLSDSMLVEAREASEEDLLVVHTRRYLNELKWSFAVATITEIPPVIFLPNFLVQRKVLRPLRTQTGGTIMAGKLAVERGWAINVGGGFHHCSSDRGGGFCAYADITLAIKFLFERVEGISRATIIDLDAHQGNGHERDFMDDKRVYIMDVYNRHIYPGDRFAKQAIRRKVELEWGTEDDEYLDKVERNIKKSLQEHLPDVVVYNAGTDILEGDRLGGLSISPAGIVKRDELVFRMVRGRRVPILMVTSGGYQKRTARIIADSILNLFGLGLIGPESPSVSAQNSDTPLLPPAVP
Description: Inhibition of HDAC11 (unknown origin).

For test [12], the target named is Vasopressin V1a receptor (Homo sapiens, UniProt P37288). The experiment in a line: Inhibition of Vasopressin V1A receptor (unknown origin).
Vasopressin V1a receptor, sequence (P37288 whole entry): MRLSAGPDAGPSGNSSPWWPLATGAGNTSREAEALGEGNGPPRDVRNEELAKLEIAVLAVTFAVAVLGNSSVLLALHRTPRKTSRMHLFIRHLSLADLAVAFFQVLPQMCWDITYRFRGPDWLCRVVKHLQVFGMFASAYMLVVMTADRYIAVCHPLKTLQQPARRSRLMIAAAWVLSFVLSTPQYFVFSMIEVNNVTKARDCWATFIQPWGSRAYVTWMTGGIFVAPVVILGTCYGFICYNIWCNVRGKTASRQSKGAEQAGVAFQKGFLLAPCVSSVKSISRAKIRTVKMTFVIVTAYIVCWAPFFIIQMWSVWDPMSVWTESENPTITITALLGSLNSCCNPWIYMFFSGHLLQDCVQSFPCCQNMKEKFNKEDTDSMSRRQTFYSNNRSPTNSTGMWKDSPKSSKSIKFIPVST
Test [13] relates to MCF7. Description: Antiproliferative activity against human MCF7 cells assessed as reduction in cell viability. Type of test: functional, cell-based.
Test [14] deals with Histone deacetylase 4 (Homo sapiens, UniProt P56524). The experiment in a line: Inhibition of HDAC4 (unknown origin).
Test [15] addresses Spike glycoprotein (Severe acute respiratory syndrome coronavirus 2, UniProt P0DTC2). The experiment in a line: Binding affinity to SARS-Cov-2 Spike protein assessed as dissociation constant.

Histone deacetylase 9, sequence (Q9UKV0 whole entry): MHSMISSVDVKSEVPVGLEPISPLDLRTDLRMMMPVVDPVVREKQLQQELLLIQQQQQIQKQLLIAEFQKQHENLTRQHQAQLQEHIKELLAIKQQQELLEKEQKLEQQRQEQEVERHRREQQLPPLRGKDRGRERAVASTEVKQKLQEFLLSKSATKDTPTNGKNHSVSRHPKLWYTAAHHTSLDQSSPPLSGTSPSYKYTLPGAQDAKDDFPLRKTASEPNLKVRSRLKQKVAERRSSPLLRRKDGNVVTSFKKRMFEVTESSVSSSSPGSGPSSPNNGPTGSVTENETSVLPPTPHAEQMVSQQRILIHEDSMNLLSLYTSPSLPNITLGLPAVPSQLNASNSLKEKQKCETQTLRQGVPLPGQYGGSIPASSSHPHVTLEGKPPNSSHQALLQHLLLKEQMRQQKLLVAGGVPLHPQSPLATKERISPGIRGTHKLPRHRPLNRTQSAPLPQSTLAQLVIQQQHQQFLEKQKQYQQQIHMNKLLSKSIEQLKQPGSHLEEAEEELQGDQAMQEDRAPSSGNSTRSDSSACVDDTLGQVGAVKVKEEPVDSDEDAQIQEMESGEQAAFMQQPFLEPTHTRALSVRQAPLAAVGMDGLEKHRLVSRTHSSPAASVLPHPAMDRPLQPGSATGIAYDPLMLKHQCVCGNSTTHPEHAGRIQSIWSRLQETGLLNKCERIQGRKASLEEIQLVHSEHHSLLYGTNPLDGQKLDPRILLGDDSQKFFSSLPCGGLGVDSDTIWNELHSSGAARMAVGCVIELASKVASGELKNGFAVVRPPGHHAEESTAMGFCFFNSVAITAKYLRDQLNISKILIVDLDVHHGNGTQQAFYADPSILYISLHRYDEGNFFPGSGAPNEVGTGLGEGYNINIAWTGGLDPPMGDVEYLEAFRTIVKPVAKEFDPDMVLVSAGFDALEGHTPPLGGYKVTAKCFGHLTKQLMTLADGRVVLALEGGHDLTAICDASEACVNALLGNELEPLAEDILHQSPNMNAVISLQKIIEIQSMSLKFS
Sphingosine kinase 1, sequence (Q9NYA1 whole entry): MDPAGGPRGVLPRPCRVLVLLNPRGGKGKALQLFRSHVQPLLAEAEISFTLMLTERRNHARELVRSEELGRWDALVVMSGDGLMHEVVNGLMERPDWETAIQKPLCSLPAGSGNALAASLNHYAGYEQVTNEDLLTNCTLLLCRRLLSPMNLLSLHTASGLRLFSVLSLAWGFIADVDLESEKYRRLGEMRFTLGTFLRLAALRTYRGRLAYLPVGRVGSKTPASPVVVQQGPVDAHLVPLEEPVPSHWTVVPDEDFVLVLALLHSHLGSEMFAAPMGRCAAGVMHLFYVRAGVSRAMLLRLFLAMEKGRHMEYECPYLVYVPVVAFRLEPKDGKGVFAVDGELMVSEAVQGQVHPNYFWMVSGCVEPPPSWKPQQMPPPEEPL
Histone deacetylase 1, sequence (Q13547 whole entry): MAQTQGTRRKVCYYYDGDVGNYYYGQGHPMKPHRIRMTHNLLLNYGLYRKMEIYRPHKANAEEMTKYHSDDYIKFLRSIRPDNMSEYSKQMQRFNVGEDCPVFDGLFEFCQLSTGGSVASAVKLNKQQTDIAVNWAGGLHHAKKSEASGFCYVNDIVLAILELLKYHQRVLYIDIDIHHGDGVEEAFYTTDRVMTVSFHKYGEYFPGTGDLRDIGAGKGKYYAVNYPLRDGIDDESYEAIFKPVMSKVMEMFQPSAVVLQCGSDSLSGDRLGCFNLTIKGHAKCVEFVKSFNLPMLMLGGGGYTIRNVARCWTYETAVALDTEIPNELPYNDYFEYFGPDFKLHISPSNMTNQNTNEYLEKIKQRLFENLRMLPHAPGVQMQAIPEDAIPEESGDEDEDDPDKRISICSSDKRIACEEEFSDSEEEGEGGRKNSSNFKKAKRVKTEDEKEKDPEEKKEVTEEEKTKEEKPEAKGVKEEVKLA

For `CC1Cc2c(Cl)nc(-c3ccccc3)nc2N(C)c2ccc(O)cc21` (stereo not given), the IC50 in test [1] was greater than 650 µM.
In test [1], `Brc1cc2c(c3ccccc13)N1OC(C2)CC1CCc1ccccc1` (stereo not given) came in with an IC50 greater than 650 µM.
Consider `O=C(NO)c1ccc(CN2c3cc(C(F)(F)F)ccc3S(=O)(=O)C[C@H]3CCCC[C@H]32)cc1`, for which the IC50 in test [2] came out at 8.8 µM; in [3] it was 16 µM; in test [4] it was 16 µM; in test [5], 22 µM; in test [6] it was 0.01 µM; in test [7], 15 µM. For the same compound, the IC50 in [8] was 2 µM; in test [9], greater than 30 µM; in [10], 9.4 µM; in test [11], 0.85 µM.
As for `Cc1ccccc1C(=O)Nc1ccc(C(=O)N2CCC[C@H](N(C)C)c3ccccc32)cc1`, it took 14 µM to reach half-maximal inhibition in test [12] (IC50).
For `NCCCNCCCCNCCCNC1=Nc2ccccc2CCC1`, the IC50 in test [13] is greater than 50 µM.
`O=C(NO)c1ccc(CN2c3ccccc3SC[C@H]3CCCC[C@H]32)cc1`: the IC50 in test [2] is greater than 30 µM; in [14] it was greater than 30 µM; in test [5] it was 27 µM; in [6], 0.03 µM; in test [7], greater than 30 µM; in test [8], 5.3 µM. Moreover, the IC50 in [9] is 25 µM; in [10] it was greater than 30 µM; in test [11] it was 1.5 µM.
As for `CN1CCCC(n2nc(Cc3ccc(Cl)cc3)c3ccccc3c2=O)CC1` (stereo not given) [AZELASTINE], the Kd in test [15] stood at 0.258 µM.
Take `CC1C[C@]2(C)C(NCCCNCCCCNCCCN)=Nc3ccccc3[C@]2(C)N(C)c2ccccc21` (stereo not given in full): in test [13], the IC50 came out at 9.84 µM.

The record behind these values is ChEMBL document CHEMBL6078616, “Seven-membered N-heterocycles as approved drugs and promising leads in medicinal chemistry as well as the metal-free domino access to their scaffolds” (Eur J Med Chem, 2024).
